Test results: patent US12612386B2, “Heteroaryl-triazole compounds as pesticides” (Bayer Aktiengesellschaft, priority 2020, dated 2026)

How the values were obtained:
Format in all cases: in vivo
[1] = system: fall armyworm larvae (Spodoptera frugiperda); experiment: whole plant or invertebrate; conditions: 168 h
Summary of the method: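 Percent kill of Spodoptera frugiperda caterpillars, read 7 days after infestation of dried, spray-treated Zea mays leaf pieces. Spray preparation: compound in acetone plus dimethylformamide, diluted with emulsifier-containing water.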

[2] = system: larvae of the banded cucumber beetle (Diabrotica balteata); experiment: Diabrotica balteata spray test; conditions: 168 h, 100 g/ha (=32 μg/well), after 7 days, read-out: efficacy (seedling growth)
Summary of the method: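 Efficacy is seedling survival after 7 days, where 0% means no seedlings grew and 100% means growth equal to untreated, uninfested controls. Wheat seedlings, germinated on agar for 1 day, were sprayed with the aqueous emulsifier dilution (acetone/DMF solvent) and then exposed to 10–20 banded cucumber beetle larvae.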

[3] = system: brown planthopper (Nilaparvata lugens); experiment: Nilaparvata lugens spray test; conditions: 96 h
Summary of the method: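 Rice plants (Oryza sativa) sprayed with compound formulated in acetone/DMF with alkylarylpolyglycol ether emulsifier (1000 ppm in diluting water), then infested with planthoppers. Mortality (%) scored after 4 days; 100% = all insects killed, 0% = none killed.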

[4] = system: adult flies Musca domestica strain WHO-N; experiment: Musca domestica test (MUSCDO surface treatment & contact assay); conditions: 24 hours after contact, read-out: efficacy (mortality); for mortality at 4 mg/m2: surface concentration 4 mg/m^2, 30 min exposure; for mortality at 20 mg/m2: surface concentration 20 mg/m^2, 30 min exposure
Description: Musca domestica Test (MUSCDO Surface Treatment & Contact Assay)
(§1) Solvent: Aceton+2000 ppm rapeseed oil methyl ester (RME)
This solution is pipetted onto a glazed tile and after evaporation of the acetone, adult flies of the species Musca domestica strain WHO-N are placed onto the dried surface. The exposure time is 30 minutes. Mortality in percent (%) is determined 24 hours after contact of the insects to the treated surface. 100% mortality means that all tested insects are dead, whereas 0% means that no insect died.

[5] = system: larvae of the southern green stink bug (Nezara viridula); experiment: whole plant or invertebrate; conditions: 96 h
Summary of the method: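 Percent mortality of southern green stink bug larvae was recorded at day 4, with 100% meaning all dead. The larvae were placed on barley sprayed with the test solution. That solution was prepared from acetone/dimethylformamide concentrate diluted in emulsifier-containing water (1000 ppm).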

[6] = system: green peach aphid (Myzus persicae); experiment: Myzus persicae spray test (MYZUPE); conditions: 120 h; for mortality at 100 g/ha: after 5 days
Summary of the method: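 Percent aphid kill, with 0% meaning none killed, was read 5 days after spraying. The preparation (acetone–DMF solvent, water with 1000 ppm emulsifier) was applied to Brassica pekinensis leaf disks carrying mixed-instar green peach aphids.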

[7] = system: cattle tick larvae (Rhipicephalus microplus), strain Parkhurst, resistant against synthetic pyrethroids; experiment: Rhipicephalus (Boophilus) microplus in-vitro contact test, larval cattle tick; conditions: 5 μg/cm^2 (=500 g/ha), after 48 hours
Summary of the method: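 After drying, 20-50 larvae were held per tube at 27° C., 85% relative humidity for 48 h, and efficacy was scored as % dead or moribund.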

[8] = system: adult mosquitoes Aedes aegypti strain MONHEIM; experiment: Aedes aegypti test (AEDSAE surface treatment & contact assay); conditions: 24 hours after contact, read-out: efficacy (mortality); for mortality at 20 mg/m2: surface concentration 20 mg/m^2, 30 min exposure; for mortality at 4 mg/m2: surface concentration 4 mg/m^2, 30 min exposure
Description: Aedes aegypti Test (AEDSAE Surface Treatment & Contact Assay)
as §1
This solution is pipetted onto a glazed tile and after evaporation of the acetone, adult mosquitoes of the species Aedes aegypti strain MONHEIM are placed onto the dried surface. The exposure time is 30 minutes. Mortality in percent (%) is determined 24 hours after contact of the insects to the treated surface. 100% mortality means that all tested insects are dead, whereas 0% means that no insect died.

[9] = system: adult cat fleas (Ctenocephalides felis); experiment: Ctenocephalides felis in-vitro contact test, adult cat flea; conditions: 5 μg/cm^2 (=500 g/ha), after 48 hours
Description: Ctenocephalides felis—In-Vitro Contact Tests Adult Cat Flea
(§2) 9 mg compound is solved in 1 mL acetone and diluted with acetone to the desired concentration. 250 μL of the test solution is filled in 25 mL glass test tubes and homogeneously distributed on the inner walls by rotation and tilting on a shaking device (2 h at 30 rpm). With a compound concentration of 900 ppm, an inner surface of 44.7 cm^2 and a homogeneous distribution, a dose of 5 μg/cm^2 is achieved.
After the solvent has evaporated, each test tube is filled with 5-10 adult cat fleas (Ctenocephalides felis), closed with a perforated lid and incubated in a lying position at room temperature and relative humidity. After 48 hours efficacy is determined. The fleas are patted on the ground of the tubes and are incubated on a heating plate at 45-50° C. for at most 5 minutes. Immotile or uncoordinated moving fleas, which are not able to escape the heat by climbing upwards, are marked as dead or moribund.
An efficacy of 100% means all fleas are dead or moribund; 0% means no fleas are dead or moribund.

[10] = system: adult brown dog ticks (Rhipicephalus sanguineus); experiment: Rhipicephalus sanguineus in-vitro contact test, adult brown dog ticks; conditions: 48 h, read-out: efficacy (ticks dead or moribund)
Description: Rhipicephalus sanguineus—In-Vitro Contact Tests with Adult Brown Dog Ticks
as §2
After the solvent has evaporated, each test tube is filled with 5-10 adult brown dog ticks (Rhipicephalus sanguineus), closed with a perforated lid and incubated in a lying position at room temperature and relative humidity. After 48 hours efficacy is determined. The ticks are patted on the ground of the tubes and are incubated on a heating plate at 45-50° C. for at most 5 minutes. Immotile or uncoordinated moving ticks, which are not able to escape the heat by climbing upwards, are marked as dead or moribund.
An efficacy of 100% means all ticks are dead or moribund; 0% means no ticks are dead or moribund.

[11] = system: adult mosquitoes Culex quinquefasciatus strain P00; experiment: Culex quinquefasciatus test (CULXFA surface treatment & contact assay); conditions: 24 hours after contact, read-out: efficacy (mortality); for mortality at 20 mg/m2: surface concentration 20 mg/m^2, 30 min exposure
Description: Culex quinquefasciatus Test (CULXFA Surface Treatment & Contact Assay)
as §1
This solution is pipetted onto a glazed tile and after evaporation of the acetone, adult mosquitoes of the species Culex quinquefasciatus strain P00 are placed onto the dried surface. The exposure time is 30 minutes. Mortality in percent (%) is determined 24 hours after contact of the insects to the treated surface. 100% mortality means that all tested insects are dead, whereas 0% means that no insect died.

| Structure (SMILES) | mortality at 100 g/ha [1] [%] | pest or weed control at 32 µg/disc, 100 g/ha [2] [%] | mortality at 500 g/ha [3] [%] | mortality at 4 mg/m2 [4] [%] | mortality at 20 mg/m2 [4] [%] | mortality at 100 g/ha [5] [%] | mortality at 500 g/ha [5] [%] | mortality at 100 g/ha [6] [%] | efficacy (larvae dead or moribund) [7] [%] | mortality at 20 mg/m2 [8] [%] | efficacy (fleas dead or moribund) [9] [%] | pest or weed control at 5 µg/cm2, 500 g/ha [10] [%] | mortality at 4 mg/m2 ([11]; surface concentration 4 mg/m^2, 30 min exposure) [%] | mortality at 20 mg/m2 [11] [%] | mortality at 4 mg/m2 [8] [%] | Emax at 20 g/ha ([1]; SPODFR, 20 g ai/ha, 7 dat (Table 4), read-out: % Efficacy) [%] | Emax at 100 g/ha ([1]; SPODFR, 100 g ai/ha, 7 dat (Table 4), read-out: % Efficacy) [%] | Emax at 4 g/ha ([6]; MYZUPE, 4 g ai/ha, 5 dat (Table 4), read-out: % Efficacy) [%] | Emax at 20 g/ha ([6]; MYZUPE, 20 g ai/ha, 5 dat (Table 4), read-out: % Efficacy) [%] | Emax at 100 g/ha ([6]; MYZUPE, 100 g ai/ha, 5 dat (Table 4), read-out: % Efficacy) [%] |
| --- | --- | --- | --- | --- | --- | --- | --- | --- | --- | --- | --- | --- | --- | --- | --- | --- | --- | --- | --- | --- |
| C[C@H](NC(=O)c1cc(C#N)cc(OC(F)(F)F)c1)c1nc(C2CC2)nn1-c1cc(C(N)=O)ncn1 [I-39] | 100 | 100 | 100 | 80 to 100 | 80 to 100 |  |  |  |  |  |  |  |  |  |  |  |  |  |  |  |
| C[C@H](NC(=O)c1cc(Br)cc(OC(F)F)c1)c1ncnn1-c1cc(C#N)ncn1 [I-3] | 100 | 100 |  |  |  | 90 | 90 | 90 | 100 | 80 to 100 | 100 | 100 |  |  |  |  |  |  |  |  |
| Cc1nc([C@H](C)NC(=O)c2cc(C(F)(F)F)cc(C(F)(F)F)c2)n(-c2cc(C#N)ncn2)n1 [I-5] | 100 | 100 |  |  |  |  |  | 90 | 100 | 80 to 100 | 90 | 100 |  |  |  |  |  |  |  |  |
| C[C@H](NC(=O)c1cc(OC(F)(F)F)cc(OC(F)(F)F)c1)c1nc(C2CC2)nn1-c1cc(C(N)=O)ncn1 [I-36] | 100 | 100 |  | 80 to 100 | 80 to 100 |  |  |  | 100 | 80 to 100 |  | 80 |  |  |  |  |  |  |  |  |
| C[C@H](NC(=O)c1cc(OC(F)(F)F)cc(C2(C#N)CC2)c1)c1nc(C2CC2)nn1-c1cc(C(N)=O)ncn1 [I-33] | 100 | 100 | 100 | 80 to 100 | 80 to 100 |  |  |  | 100 | 80 to 100 | 100 |  | 80 to 100 | 80 to 100 | 80 to 100 |  |  |  |  |  |
| C[C@H](NC(=O)c1cc(OC(F)(F)F)cc(C2CC2)c1)c1ncnn1-c1cc(C#N)ncn1 [I-10] | 100 | 100 |  |  | 80 to 100 |  |  |  | 100 | 80 to 100 |  |  |  |  | 80 to 100 |  |  |  |  |  |
| C[C@H](NC(=O)c1cc(OC(F)F)cc(OC(F)(F)F)c1)c1ncnn1-c1cc(C(N)=O)ncn1 [I-141] | 100 | 100 | 100 |  |  |  | 100 | 90 | 100 |  | 100 | 100 |  |  |  |  |  |  |  |  |
| CNC(=O)c1cc(-n2ncnc2[C@H](C)NC(=O)c2cc(Cl)cc(S(=O)(=O)C(F)(F)F)c2)ncn1 [I-86] | 100 | 100 |  |  | 80 to 100 |  | 100 | 100 |  | 80 to 100 |  |  |  |  | 80 to 100 | 100 | 100 | 100 | 100 | 100 |
| C[C@H](NC(=O)c1cc(OC(F)(F)F)cc(S(=O)(=O)C(F)F)c1)c1ncnn1-c1cc(C#N)ncn1 [I-20] | 100 | 100 |  |  | 80 to 100 |  |  | 100 |  | 80 to 100 |  |  |  | 80 to 100 | 80 to 100 |  |  |  |  |  |
| CC(NC(=O)c1cc(OC(F)(F)F)cc(C2CC2)c1)c1ncnn1-c1cc(C#N)ncn1 (stereo not drawn) [I-8, N-{1-[1-(6-cyanopyrimidin-4-yl)-1H-1,2,4-triazol-5-yl]ethyl}-3-cyclopropyl-5-(trifluoromethoxy)benzamide] | 100 | 100 | 100 |  | 80 to 100 |  |  | 90 | 100 | 80 to 100 |  |  |  |  | 80 to 100 |  |  |  |  |  |
| C[C@H](NC(=O)c1cc(Br)cc(Br)c1)c1ncnn1-c1cc(C(N)=O)ncn1 [I-34, 6-[5-[(1S)-1-[(3,5-dibromobenzoyl)amino]ethyl]-1,2,4-triazol-1-yl]pyrimidine-4-carboxamide] | 100 | 100 |  |  |  | 100 | 100 | 90 | 100 | 80 to 100 | 100 | 100 |  |  | 80 to 100 |  |  |  |  |  |
